According to publication PMC4115637 (Pharmacology Research & Perspectives, 2014):
Substitutions are numbered along the chain they refer to. Counter-ions that a name gives are not always drawn. Like-named read-outs stand apart in the source and are kept apart here.

Columns and labels:
[1] = biological target: T1, human TRPV3 (Homo sapiens, UniProt Q8NET8); experiment: Re-evaluation of screening hits as TRPV3 agonists; type: cell-based; conditions: Table 1
T1 sequence (Q8NET8 1-790): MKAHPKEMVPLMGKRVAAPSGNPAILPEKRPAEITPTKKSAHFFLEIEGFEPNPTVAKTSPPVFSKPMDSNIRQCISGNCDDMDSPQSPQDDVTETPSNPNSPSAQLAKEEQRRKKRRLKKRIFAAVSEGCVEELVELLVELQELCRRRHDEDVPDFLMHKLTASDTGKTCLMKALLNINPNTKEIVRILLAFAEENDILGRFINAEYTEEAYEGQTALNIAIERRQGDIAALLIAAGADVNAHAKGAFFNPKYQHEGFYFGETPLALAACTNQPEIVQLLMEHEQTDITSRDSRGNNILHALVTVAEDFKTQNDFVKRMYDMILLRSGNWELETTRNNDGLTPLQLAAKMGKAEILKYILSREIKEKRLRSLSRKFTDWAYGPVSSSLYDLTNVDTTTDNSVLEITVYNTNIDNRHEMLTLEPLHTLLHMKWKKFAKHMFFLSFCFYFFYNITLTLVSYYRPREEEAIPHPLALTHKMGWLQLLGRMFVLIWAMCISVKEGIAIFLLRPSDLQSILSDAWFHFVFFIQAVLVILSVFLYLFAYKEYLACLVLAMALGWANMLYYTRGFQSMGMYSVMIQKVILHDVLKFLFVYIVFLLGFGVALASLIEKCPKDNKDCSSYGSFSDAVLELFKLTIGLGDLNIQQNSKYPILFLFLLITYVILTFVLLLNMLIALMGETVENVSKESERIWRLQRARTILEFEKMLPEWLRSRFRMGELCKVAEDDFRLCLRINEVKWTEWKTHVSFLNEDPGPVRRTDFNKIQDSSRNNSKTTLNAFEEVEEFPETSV

[2] = biological target: T1, human TRPV3; experiment: Re-evaluation of screening hits as TRPV3 antagonists; type: cell-based; conditions: Table 2; selectivity versus other TRP channel overexpressing HEK-293 lines
[3] = biological target: T1, human TRPV3; experiment: Inhibition of agonist-induced calcium flux in TRPV3 overexpressing HEK-293 cells; type: cell-based; conditions: all three agonists (drofenine, carvacrol, 2-APB)
[4] = biological target: human TRPV1 (Homo sapiens, UniProt Q8NER1); experiment: Calcium flux in HEK-293 cells overexpressing TRPV1; type: cell-based; conditions: Table 2 comment
[5] = biological target: T1, human TRPV3; experiment: Calcium flux in TRPV3 overexpressing HEK-293 cells; type: cell-based
[6] = biological target: T2, TRPV3-H426N (Homo sapiens, UniProt Q8NET8, H426N); experiment: Calcium flux in HEK-293 cells transiently transfected with TRPV3-H426N; type: cell-based; conditions: agonist 100 μmol/L
T2 sequence (Q8NET8 1-790 H426N): T1 sequence (Q8NET8 1-790) with H426N

[7] = biological target: T3, TRPV3-R696K (Homo sapiens, UniProt Q8NET8, R696K); experiment: Calcium flux in HEK-293 cells transiently transfected with TRPV3-R696K; type: cell-based; conditions: 100 μmol/L carvacrol, 100 μmol/L 2-APB, 100 and 200 μmol/L drofenine
T3 sequence (Q8NET8 1-790 R696K): T1 sequence (Q8NET8 1-790) with R696K

[8] = biological target: T4, TRPV3 in HaCaT cells (Homo sapiens, UniProt Q8NET8); experiment: Calcium flux in HaCaT cells; type: cell-based
T4 sequence (Q8NET8 1-790): T1 sequence (Q8NET8 1-790)

[9] = test system: TRPV3; conditions: cited from earlier work; for EC50: depending on the model used
[10] = test system: HaCaT cells; experiment: Cell viability assay; type: cell-based, human; conditions: data not shown

human TRPV1, sequence (Q8NER1 whole entry): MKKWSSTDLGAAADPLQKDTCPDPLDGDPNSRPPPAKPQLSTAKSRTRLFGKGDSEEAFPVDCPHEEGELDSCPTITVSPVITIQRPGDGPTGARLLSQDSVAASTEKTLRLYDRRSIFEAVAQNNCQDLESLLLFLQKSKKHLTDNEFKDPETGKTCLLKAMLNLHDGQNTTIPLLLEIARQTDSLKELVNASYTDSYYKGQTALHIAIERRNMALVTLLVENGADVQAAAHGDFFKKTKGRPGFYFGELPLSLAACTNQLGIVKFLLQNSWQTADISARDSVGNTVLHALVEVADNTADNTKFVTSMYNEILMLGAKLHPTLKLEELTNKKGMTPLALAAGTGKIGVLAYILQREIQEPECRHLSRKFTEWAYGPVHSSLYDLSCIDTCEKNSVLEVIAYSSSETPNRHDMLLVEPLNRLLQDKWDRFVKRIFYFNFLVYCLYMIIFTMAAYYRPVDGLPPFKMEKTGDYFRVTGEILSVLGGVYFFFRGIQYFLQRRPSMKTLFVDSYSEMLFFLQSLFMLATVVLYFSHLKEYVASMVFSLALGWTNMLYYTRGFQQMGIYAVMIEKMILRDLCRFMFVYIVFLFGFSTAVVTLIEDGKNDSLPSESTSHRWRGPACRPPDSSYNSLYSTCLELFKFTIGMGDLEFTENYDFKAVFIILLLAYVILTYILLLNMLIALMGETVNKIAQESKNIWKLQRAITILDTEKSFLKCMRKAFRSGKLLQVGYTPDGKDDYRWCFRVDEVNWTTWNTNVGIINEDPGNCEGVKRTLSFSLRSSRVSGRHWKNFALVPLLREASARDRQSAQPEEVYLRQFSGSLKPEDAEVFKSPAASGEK

Compound | Comment(s): re-evaluation as TRPV3 agonist [1] | Comment(s): re-evaluation as TRPV3 antagonist [2] | further results
CC(=O)Nc1ccccc1 [Acetanilide] | Inactive in confirmation assay |  | 
CC(=O)OCC[N+](C)(C)C [Acetylcholine] | Nonselective; HEK-293 response |  | 
CCCCCCc1ccc(O)cc1O.Nc1c2ccccc2nc2ccccc12 [Acrisorcin] | 4-Hexylresorcinol inactive as TRPV3 agonist; 9-aminoacridine fluorescence interference |  | 
CC(C)COCC(CN(Cc1ccccc1)c1ccccc1)N1CCCC1.Cl.O (centres unmarked) [Bepradil HCl] | Inactive in confirmation assay |  | 
C[N+](C)(C)CCOC(N)=O [Carbachol] | Nonselective; HEK-293 response |  | 
O=C(N[C@H](CO)[C@H](O)c1ccc([N+](=O)[O-])cc1)C(Cl)Cl [Chloramphenicol] |  | Not inhibitory on rescreen | 
CCCCOc1ccc(C(=O)CCN2CCCCC2)cc1 [Dyclonine HCl] |  | Not inhibitory on rescreen | 
CC[C@H]1OC(=O)[C@H](C)[C@@H](O[C@H]2C[C@@](C)(OC)[C@@H](O)[C@H](C)O2)[C@H](C)[C@@H](O[C@@H]2O[C@H](C)C[C@H](N(C)C)[C@H]2O)[C@](C)(O)C[C@@H](C)C(=O)[C@H](C)[C@@H](O)[C@]1(C)O [Erythromycin] |  | Not inhibitory on rescreen | 
COc1cc([C@@H]2c3cc4c(cc3[C@@H](O[C@@H]3O[C@@H]5CO[C@@H](C)O[C@H]5[C@H](O)[C@H]3O)[C@H]3COC(=O)[C@H]23)OCO4)cc(OC)c1O [Etoposide] |  | Cytotoxic, false positive | 
O=C(O)c1ccccc1Nc1cccc(C(F)(F)F)c1 [Flufenamic acid] |  | Nonselective; also inhibited TRPV1 | 
CC(=O)OC(C)C[N+](C)(C)C (centres unmarked) [Methacholine] | Nonselective; HEK-293 response |  | 
CN[C@@H]1[C@H](O)[C@H](NC)[C@H]2O[C@@]3(O)C(=O)C[C@@H](C)O[C@H]3O[C@@H]2[C@H]1O.Cl.Cl.O.O.O.O.O [Spectinomycin HCl] |  | Not inhibitory on rescreen | 
O=C1C(CC[S+]([O-])c2ccccc2)C(=O)N(c2ccccc2)N1c1ccccc1 (centres unmarked) [Sulfinpyrazone] |  | Not inhibitory on rescreen | 
Cc1cccc2c1N(C(=O)CSc1ccc(C(F)(F)F)cn1)CCC2 [TRPV3 antagonist, 2-(5-trifluoromethyl-pyridine-2ylsulfanyl)-1-(8-methyl-3,4-dihydro-2H-quinolin-1-yl)-ethanone] |  |  | IC50 [3]: 1 to 3 µM
CCCCNc1ccc(C(=O)OCCN(C)C)cc1 [Tetracaine HCl] |  | inhibited TRPA1>V3=V1 | concentration of apparent TRPV1 agonist activity [4]: < 25 µmol/L
CC(=O)CC(c1ccccc1)c1c(O)c2ccccc2oc1=O (centres unmarked) [Warfarin] |  | Nonselective; also inhibited TRPV1 | 
Cc1ccc(C(C)C)cc1O [carvacrol] |  |  | EC50 [5]: 438 µM; calcium flux in TRPV3-H426N relative to TRPV3-WT [6]: no effect; calcium flux in TRPV3-R696K [7]: diminished-to-no-function; EC50 [8]: > 1000 µM
Cc1ccc(C(C)(C)C)c(O)c1 [cresol, 6-tert-butyl-m-cresol] |  |  | EC50 ([9]; ref Vogt-Eisele et al. [2007]): > 6000 µM
CC(C)=CCC/C(C)=C/CC/C(C)=C/COP(=O)(O)OP(=O)(O)O [farnesyl pyrophosphate] |  |  | EC50 ([9]; ref Bang et al. [2010]): ~0.13 µM
O=C1NC(c2cccc([N+](=O)[O-])c2)=CCN1c1ccccc1O [icilin] |  |  | inhibition of TRPV3 ([9]; ref Sherkheli et al. [2012]): inhibits TRPV3 at low micromolar concentrations; cytotoxicity [10]: potently cytotoxic
Acriflavinium HCl | Fluorescence interference |  | 
